Reference: patent US12624044B2, “SMARCA degraders and uses thereof” (Kymera Therapeutics, Inc., priority 2019, dated 2026)

Each compound was assayed against SMARCA2 (Homo sapiens, UniProt P51531) (assay: MSD SMARCA2 degradation in NCI-H1299 cell line (24 h)). Details: NCI-H1299, NCI-H1299 cells.
Format: cell-based
Set-up: HC: NCI-H1299 cells treated with DMSO; host or cells: NCI-H1299
Procedure: Example 32. MSD SMARCA2 Degradation in […] Cell Line
Cell Culture: Cells were cultured in exponential growth phase.
Compound Preparation and Treatment: NCI-H1299 cells were seeded into the 96-well plate at 4.0*10^4 cells per 100 ul per well. Incubate the plate in the incubator overnight. The next day, compounds were diluted to designed stock concentration by TECAN, then perform a 3 fold, 9-point dilution via transferring 15 uL compound into 30 μL DMSO using Apricot. 200 nL diluted compound from compound source plate were transferred into the 96-intermediate plate as designated by using Echo550, followed with 100 ul culture medium to make the 2× compound solution. Cell plate were changed with 80 ul of fresh culture medium and 80 ul of 2× compound solution was added into the well to achieve the final designed concentration. Cell plate was then shaken at 720 rpm for 5 min and incubated for 24 hours in the incubator.
Sample Preparation: Media was aspirated from the cultures and the plate was washed with PBS twice. 60 ul of pre-chilled PIPA lysis buffer (Boston BioProducts BP-115D) with protease inhibitor were directly added into the well to lyze the cells for 20 minutes at 4° C. Cell lysates were collected.
MSD Procedure: The MSD plate was coated with 40 ul cell lysate and incubated at 4° C. overnight. The next day, the MSD coated bare plate was washed 3 times with 150 ul 1×TBST per well, blocked with 150 ul of blocking buffer per well, and shaken for 1 hour at RT, 600 rpm. Blocking buffer was 3% Blocker A in TBST. MSD plate was then washed 3 times with 150 ul 1×TBST per well and Primary Detection antibody (Rabbit anti-SMARCA2/BRM antibody, 100 μg/ml, ab223735) was added to a final [conc.]: 0.3 ug/ml, 25 ul/well and shaken for 1 hour at RT, 600 rpm. Antibody was prepared in Antibody Detection buffer (1% Blocker A in 1×TBST). The MSD plate was then washed 3 times with 150 ul 1×TBST per well. Secondary Detection antibody (SULFO-TAG anti-species antibody) was then added to a final [conc.]: 1 ug/ml, 25 ul/well, and shaken for 1 hour at RT, 600 rpm. Antibodies were prepared in Antibody Detection buffer (1% Blocker A in 1×TBST). MSD plate was washed 3 times with 150 ul 1×TBST per well and 2×MSD reading buffer was added, 150 ul per well, and diluted from 4× with water. MSD instrument was then read.
Data Analysis: The percentage of relative level of SMARCA2 level was calculated following equation below.
LC: A2780, SMARCA2 negative cells. HC: NCI-H1299 cells treated with DMSO.
The letter codes for the percentage of SMARCA2 degradation after 24 hours (Dmax %) include: A (>90% degradation), B (>70-90 degradation), C (50-70 degradation), and D (<50% degradation).

Chain of SMARCA2 (P51531 whole entry): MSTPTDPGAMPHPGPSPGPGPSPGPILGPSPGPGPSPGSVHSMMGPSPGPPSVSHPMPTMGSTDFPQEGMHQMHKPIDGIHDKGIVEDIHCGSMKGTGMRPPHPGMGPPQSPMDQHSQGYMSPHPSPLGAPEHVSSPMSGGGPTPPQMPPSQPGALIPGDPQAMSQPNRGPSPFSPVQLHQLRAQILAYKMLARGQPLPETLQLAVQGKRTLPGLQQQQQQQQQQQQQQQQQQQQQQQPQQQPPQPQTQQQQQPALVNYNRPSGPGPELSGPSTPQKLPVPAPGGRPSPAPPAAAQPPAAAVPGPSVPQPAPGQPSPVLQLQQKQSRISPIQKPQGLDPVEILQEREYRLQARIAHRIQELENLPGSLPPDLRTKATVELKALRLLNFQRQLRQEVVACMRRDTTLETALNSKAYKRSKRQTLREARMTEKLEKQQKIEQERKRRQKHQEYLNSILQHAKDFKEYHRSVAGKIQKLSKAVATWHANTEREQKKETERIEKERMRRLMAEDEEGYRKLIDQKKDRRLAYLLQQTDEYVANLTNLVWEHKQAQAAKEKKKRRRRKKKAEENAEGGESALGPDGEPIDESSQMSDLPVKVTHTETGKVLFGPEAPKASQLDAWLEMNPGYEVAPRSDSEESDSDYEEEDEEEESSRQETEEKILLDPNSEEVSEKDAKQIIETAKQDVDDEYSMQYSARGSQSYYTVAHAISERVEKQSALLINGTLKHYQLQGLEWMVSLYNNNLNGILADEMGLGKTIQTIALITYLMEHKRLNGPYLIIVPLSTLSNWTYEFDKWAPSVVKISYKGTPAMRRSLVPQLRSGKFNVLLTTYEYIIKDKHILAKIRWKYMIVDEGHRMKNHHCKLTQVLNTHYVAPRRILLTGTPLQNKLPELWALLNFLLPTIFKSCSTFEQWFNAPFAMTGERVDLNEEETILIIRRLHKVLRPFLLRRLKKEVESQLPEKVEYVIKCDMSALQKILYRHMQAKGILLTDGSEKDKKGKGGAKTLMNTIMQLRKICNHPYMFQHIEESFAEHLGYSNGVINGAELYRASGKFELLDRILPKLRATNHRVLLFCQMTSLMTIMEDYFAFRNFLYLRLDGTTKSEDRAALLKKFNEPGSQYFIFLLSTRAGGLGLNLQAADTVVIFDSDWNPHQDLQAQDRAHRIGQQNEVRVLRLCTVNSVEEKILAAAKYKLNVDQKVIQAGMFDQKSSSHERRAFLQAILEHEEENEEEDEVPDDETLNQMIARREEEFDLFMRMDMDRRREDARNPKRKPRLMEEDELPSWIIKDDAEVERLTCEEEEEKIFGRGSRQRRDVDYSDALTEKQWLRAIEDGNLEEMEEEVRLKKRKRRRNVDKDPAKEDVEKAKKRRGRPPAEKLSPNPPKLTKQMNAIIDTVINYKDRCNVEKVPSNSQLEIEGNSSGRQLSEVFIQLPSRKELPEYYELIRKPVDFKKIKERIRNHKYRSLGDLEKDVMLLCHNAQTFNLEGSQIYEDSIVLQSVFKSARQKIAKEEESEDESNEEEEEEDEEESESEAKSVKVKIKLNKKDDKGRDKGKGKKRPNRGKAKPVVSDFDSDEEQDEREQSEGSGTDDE

| Dmax [%] | Structure (SMILES) |
| --- | --- |
| < 50 | Cn1c(=O)n(C2CCC(=O)NC2=O)c2cccc(CCCNCc3cn(Cc4cccc(N5C[C@H]6C[C@@H]5CN6/C=C/C(=O)c5ccccc5O)n4)nn3)c21 (some centres unmarked) [I-28] |
| > 90 | O=C1CCC(N2C(=O)c3cccc(OCCCCc4cn(Cc5cccc(N6C[C@H]7C[C@@H]6CN7/C=C/C(=O)c6ccccc6O)n5)nn4)c3C2=O)C(=O)N1 (some centres unmarked) [I-37] |

Same assay, conditions: NCI-H1299 cells, read-out: SMARCA2 MSD H1299 degradation 24 h: External Abs-DC50

| DC50 [nM] | Structure (SMILES) |
| --- | --- |
| > 1000 | O=C(CCCCCCCCOc1ccc(N2C[C@H]3C[C@@H]2CN3/C=C/C(=O)c2ccccc2O)nc1)NCCOCCOCCOCCNc1cccc2c1C(=O)N(C1CCC(=O)NC1=O)C2=O (some centres unmarked) [I-1] |
| > 1000 | O=C(CCCCCCCCOc1ccc(N2C[C@H]3C[C@@H]2CN3/C=C/C(=O)c2ccccc2O)nc1)NCCOCCOCCOCCOCCNc1cccc2c1C(=O)N(C1CCC(=O)NC1=O)C2=O (some centres unmarked) [I-2] |
| > 1000 | O=C(CCCCCCCCOc1ccc(N2C[C@H]3C[C@@H]2CN3/C=C/C(=O)c2ccccc2O)nc1)NCCOCCOCCOCCOCCOCCNc1cccc2c1C(=O)N(C1CCC(=O)NC1=O)C2=O (some centres unmarked) [I-3] |
| > 1000 | Cn1c(=O)n(C2CCC(=O)NC2=O)c2ccc(CCCOCCOCCOCCNC(=O)CCCCCCCCOc3ccc(N4C[C@H]5C[C@@H]4CN5/C=C/C(=O)c4ccccc4O)nc3)cc21 (some centres unmarked) [I-4] |
| > 1000 | Cn1c(=O)n(C2CCC(=O)NC2=O)c2ccc(CCCOCCOCCOCCOCCNC(=O)CCCCCCCCOc3ccc(N4C[C@H]5C[C@@H]4CN5/C=C/C(=O)c4ccccc4O)nc3)cc21 (some centres unmarked) [I-5] |
| > 1000 | Cn1c(=O)n(C2CCC(=O)NC2=O)c2ccc(CCCOCCOCCOCCOCCOCCNC(=O)CCCCCCCCOc3ccc(N4C[C@H]5C[C@@H]4CN5/C=C/C(=O)c4ccccc4O)nc3)cc21 (some centres unmarked) [I-6] |
| > 1000 | O=C(CCCCCCCCOc1ccc(N2C[C@H]3C[C@@H]2CN3/C=C/C(=O)c2ccccc2O)nc1)NCCOCCOCCNc1cccc2c1C(=O)N(C1CCC(=O)NC1=O)C2=O (some centres unmarked) [I-7] |
| > 1000 | Cn1c(=O)n(C2CCC(=O)NC2=O)c2ccc(CCCOCCOCCNC(=O)CCCCCCCCOc3ccc(N4C[C@H]5C[C@@H]4CN5/C=C/C(=O)c4ccccc4O)nc3)cc21 (some centres unmarked) [I-8] |
| > 1000 | CC(c1ccc(C(=O)NCCOCCOCCOCCNc2cccc3c2C(=O)N(C2CCC(=O)NC2=O)C3=O)cc1)n1cc(-c2cc(-c3ccccc3O)nnc2N)cn1 (centres unmarked) [I-9] |
| > 1000 | CC(c1ccc(C(=O)NCCOCCOCCOCCOCCNc2cccc3c2C(=O)N(C2CCC(=O)NC2=O)C3=O)cc1)n1cc(-c2cc(-c3ccccc3O)nnc2N)cn1 (centres unmarked) [I-10] |
| > 1000 | CC(c1ccc(C(=O)NCCOCCOCCOCCOCCOCCNc2cccc3c2C(=O)N(C2CCC(=O)NC2=O)C3=O)cc1)n1cc(-c2cc(-c3ccccc3O)nnc2N)cn1 (centres unmarked) [I-11] |
| > 1000 | CC(c1ccc(C(=O)NCCOCCOCCOCCCc2ccc3c(c2)n(C)c(=O)n3C2CCC(=O)NC2=O)cc1)n1cc(-c2cc(-c3ccccc3O)nnc2N)cn1 (centres unmarked) [I-12] |
| > 1000 | CC(c1ccc(C(=O)NCCOCCOCCOCCOCCCc2ccc3c(c2)n(C)c(=O)n3C2CCC(=O)NC2=O)cc1)n1cc(-c2cc(-c3ccccc3O)nnc2N)cn1 (centres unmarked) [I-13] |
| > 1000 | CC(c1ccc(C(=O)NCCOCCOCCOCCOCCOCCCc2ccc3c(c2)n(C)c(=O)n3C2CCC(=O)NC2=O)cc1)n1cc(-c2cc(-c3ccccc3O)nnc2N)cn1 (centres unmarked) [I-14] |
| > 1000 | CC(c1ccc(C(=O)NCCOCCOCCNc2cccc3c2C(=O)N(C2CCC(=O)NC2=O)C3=O)cc1)n1cc(-c2cc(-c3ccccc3O)nnc2N)cn1 (centres unmarked) [I-15] |
| > 1000 | CC(c1ccc(C(=O)NCCOCCOCCCc2ccc3c(c2)n(C)c(=O)n3C2CCC(=O)NC2=O)cc1)n1cc(-c2cc(-c3ccccc3O)nnc2N)cn1 (centres unmarked) [I-16] |
| > 1000 | O=C(CCCCCCCCOc1ccnc(N2C[C@H]3C[C@@H]2CN3/C=C/C(=O)c2ccccc2O)c1)NCCOCCOCCOCCNc1cccc2c1C(=O)N(C1CCC(=O)NC1=O)C2=O (some centres unmarked) [I-17] |
| > 1000 | O=C(CCCCCCCCOc1ccnc(N2C[C@H]3C[C@@H]2CN3/C=C/C(=O)c2ccccc2O)c1)NCCOCCOCCOCCOCCNc1cccc2c1C(=O)N(C1CCC(=O)NC1=O)C2=O (some centres unmarked) [I-18] |
| > 1000 | O=C(CCCCCCCCOc1ccnc(N2C[C@H]3C[C@@H]2CN3/C=C/C(=O)c2ccccc2O)c1)NCCOCCOCCOCCOCCOCCNc1cccc2c1C(=O)N(C1CCC(=O)NC1=O)C2=O (some centres unmarked) [I-19] |
| > 1000 | Cn1c(=O)n(C2CCC(=O)NC2=O)c2ccc(CCCOCCOCCOCCNC(=O)CCCCCCCCOc3ccnc(N4C[C@H]5C[C@@H]4CN5/C=C/C(=O)c4ccccc4O)c3)cc21 (some centres unmarked) [I-20] |

| DC50 [nM] | Structure (SMILES) |
| --- | --- |
| > 1000 | Cn1c(=O)n(C2CCC(=O)NC2=O)c2ccc(CCCOCCOCCOCCOCCNC(=O)CCCCCCCCOc3ccnc(N4C[C@H]5C[C@@H]4CN5/C=C/C(=O)c4ccccc4O)c3)cc21 (some centres unmarked) [I-21] |
| > 1000 | Cn1c(=O)n(C2CCC(=O)NC2=O)c2ccc(CCCOCCOCCOCCOCCOCCNC(=O)CCCCCCCCOc3ccnc(N4C[C@H]5C[C@@H]4CN5/C=C/C(=O)c4ccccc4O)c3)cc21 (some centres unmarked) [I-22] |
| > 1000 | O=C(CCCCCCCCOc1ccnc(N2C[C@H]3C[C@@H]2CN3/C=C/C(=O)c2ccccc2O)c1)NCCOCCOCCNc1cccc2c1C(=O)N(C1CCC(=O)NC1=O)C2=O (some centres unmarked) [I-23] |
| > 1000 | Cn1c(=O)n(C2CCC(=O)NC2=O)c2ccc(CCCOCCOCCNC(=O)CCCCCCCCOc3ccnc(N4C[C@H]5C[C@@H]4CN5/C=C/C(=O)c4ccccc4O)c3)cc21 (some centres unmarked) [I-24] |
| > 1000 | Cn1c(=O)n(C2CCC(=O)NC2=O)c2ccc(CCCOCCOCCNC(=O)CCCOc3cccc(N4C[C@H]5C[C@@H]4CN5/C=C/C(=O)c4ccccc4O)n3)cc21 (some centres unmarked) [I-25] |
| > 1000 | Cn1c(=O)n(C2CCC(=O)NC2=O)c2ccc(CCCOCCOCCOCCNC(=O)CCCOc3cccc(N4C[C@H]5C[C@@H]4CN5/C=C/C(=O)c4ccccc4O)n3)cc21 (some centres unmarked) [I-26] |
| > 1000 | Cn1c(=O)n(C2CCC(=O)NC2=O)c2ccc(CNCc3cn(Cc4cccc(N5C[C@H]6C[C@@H]5CN6/C=C/C(=O)c5ccccc5O)n4)nn3)cc21 (some centres unmarked) [I-27] |
| > 1000 | Cn1c(=O)n(C2CCC(=O)NC2=O)c2cccc(CCCNCc3cn(Cc4cccc(N5C[C@H]6C[C@@H]5CN6/C=C/C(=O)c5ccccc5O)n4)nn3)c21 (some centres unmarked) [I-28] |
| > 1000 | Cn1c(=O)n(C2CCC(=O)NC2=O)c2ccc(CCCNCc3cn(Cc4cccc(N5C[C@H]6C[C@@H]5CN6/C=C/C(=O)c5ccccc5O)n4)nn3)cc21 (some centres unmarked) [I-29] |
| > 1000 | Cn1c(=O)n(C2CCC(=O)NC2=O)c2cccc(CCCOCCOc3cccc(N4C[C@H]5C[C@@H]4CN5/C=C/C(=O)c4ccccc4O)n3)c21 (some centres unmarked) [I-30] |
| > 1000 | Cn1c(=O)n(C2CCC(=O)NC2=O)c2ccc(CCCOCCOc3cccc(N4C[C@H]5C[C@@H]4CN5/C=C/C(=O)c4ccccc4O)n3)cc21 (stereo partly drawn) [I-31, 3-[5-[3-[2-[[6-[(1R,4R)-5-[(E)-3-(2-hydroxyphenyl)-3-oxo-prop-1-enyl]-2,5-diazabicyclo[2.2.1]heptan-2-yl]-2-pyridyl]oxy]ethoxy]propyl]-3-methyl-2-oxo-benzimidazol-1-yl]piperidine-2,6-dione] |
| > 1000 | Cn1c(=O)n(C2CCC(=O)NC2=O)c2cccc(CCCOCCOCCOc3cccc(N4C[C@H]5C[C@@H]4CN5/C=C/C(=O)c4ccccc4O)n3)c21 (some centres unmarked) [I-32] |
| > 1000 | Cn1c(=O)n(C2CCC(=O)NC2=O)c2ccc(CCCOCCOCCOc3cccc(N4C[C@H]5C[C@@H]4CN5/C=C/C(=O)c4ccccc4O)n3)cc21 (some centres unmarked) [I-33] |
| > 1000 | O=C1CCC(N2C(=O)c3cccc(OCc4cn(Cc5cccc(N6C[C@H]7C[C@@H]6CN7/C=C/C(=O)c6ccccc6O)n5)nn4)c3C2=O)C(=O)N1 (some centres unmarked) [I-34] |
| > 1000 | O=C1CCC(N2C(=O)c3cccc(OCCc4cn(Cc5cccc(N6C[C@H]7C[C@@H]6CN7/C=C/C(=O)c6ccccc6O)n5)nn4)c3C2=O)C(=O)N1 (some centres unmarked) [I-35] |
| > 1000 | O=C1CCC(N2C(=O)c3cccc(OCCCc4cn(Cc5cccc(N6C[C@H]7C[C@@H]6CN7/C=C/C(=O)c6ccccc6O)n5)nn4)c3C2=O)C(=O)N1 (stereo partly drawn) [I-36, 2-(2,6-dioxo-3-piperidyl)-4-[3-[1-[[6-[(1R,4R)-5-[(E)-3-(2-hydroxyphenyl)-3-oxo-prop-1-enyl]-2,5-diazabicyclo[2.2.1]heptan-2-yl]-2-pyridyl]methyl]triazol-4-yl]propoxy]isoindoline-1,3-dione] |
| 501 to 1000 | O=C1CCC(N2C(=O)c3cccc(OCCCCc4cn(Cc5cccc(N6C[C@H]7C[C@@H]6CN7/C=C/C(=O)c6ccccc6O)n5)nn4)c3C2=O)C(=O)N1 (some centres unmarked) [I-37] |
| > 1000 | O=C1CCC(N2C(=O)c3cccc(NCCOCc4cn(Cc5cccc(N6C[C@H]7C[C@@H]6CN7/C=C/C(=O)c6ccccc6O)n5)nn4)c3C2=O)C(=O)N1 (some centres unmarked) [I-38] |
| > 1000 | O=C1CCC(N2C(=O)c3cccc(OCCOCCc4cn(Cc5cccc(N6C[C@H]7C[C@@H]6CN7/C=C/C(=O)c6ccccc6O)n5)nn4)c3C2=O)C(=O)N1 (some centres unmarked) [I-39] |
